Calls of active or inactive are those of the source. The rule behind the calls is not given here.
Tests used:
[1] = Inhibition of TEAD(unknown origin)/YAP protein-protein interaction transfected in human SK-HEP1 cells incubated for 24 hrs by NanoLuc luciferase reporter assay; format: cell-based
[2] = test system: NCI-H226; experiment: Antiproliferative activity against YAP-dependent human NCI-H226 cells incubated for 4 days by CellTiter-Glo 2.0 cell viability assay; format: functional, cell-based; conditions: NCI-H226, 96 h
[3] = test system: NCI-H226; experiment: Antiproliferative activity against YAP-dependent human NCI-H226 cells assessed as efficacy incubated for 4 days by CellTiter-Glo 2.0 cell viability assay relative to control; format: functional; conditions: time 4 day
[4] = test system: NCI-H226; experiment: Downregulation of CYR61 gene expression in human NCI-H226 cells incubated for 6 to 24 hrs by qPCR analysis; format: functional, cell-based; conditions: time lower 6.0 hrs, time upper […]
[5] = test system: NCI-H226; experiment: Downregulation of CTGF gene expression in human NCI-H226 cells incubated for 6 to 24 hrs by qPCR analysis; format: functional, cell-based; conditions: time lower 6.0 hrs, time upper […]
[6] = Inhibition of CYR61 expression in human NCI-H226 cells incubated for 24 hrs by qPCR analysis; format: functional, cell-based; conditions: NCI-H226, 24 h
[7] = Inhibition of CTGF expression in human NCI-H226 cells incubated for 24 hrs by qPCR analysis; format: functional, cell-based; conditions: NCI-H226, 24 h
[8] = molecular target: Transcriptional enhancer factor TEF-1 (Homo sapiens) (UniProt P28347); experiment: Inhibition of P-FLAG-tagged TEAD1 palmitoylation (unknown origin) transfected in HEK293 cells at 0.001 to 10 uM incubated for 6 hrs by Western blot analysis; format: cell-based; conditions: dose 0.001-10 µM
[9] = test system: NCI-H292; experiment: Antiproliferative activity against YAP-dependent human NCI-H292 cells incubated for 4 days by CyQuant assay; format: functional, cell-based; conditions: NCI-H292, 96 h
[10] = test system: NCI-H292; experiment: Antiproliferative activity against YAP-dependent human NCI-H292 cells assessed as efficacy incubated for 4 days by CyQuant assay relative to control; format: functional; conditions: time 4 day
[11] = test system: MSTO-211H; experiment: Antiproliferative activity against YAP-dependent human MSTO-211H cells incubated for 4 days by CyQuant assay; format: functional, cell-based; conditions: 96 h
[12] = test system: MSTO-211H; experiment: Antiproliferative activity against YAP-dependent human MSTO-211H cells assessed as efficacy incubated for 4 days by CyQuant assay relative to control; format: functional; conditions: time 4 day
[13] = test system: SK-HEP1; experiment: Antiproliferative activity against YAP-dependent human SK-HEP1 cells incubated for 4 days by CyQuant assay; format: functional, cell-based; conditions: SK-HEP1, 96 h
[14] = test system: SK-HEP1; experiment: Antiproliferative activity against YAP-dependent human SK-HEP1 cells assessed as efficacy incubated for 4 days by CyQuant assay relative to control; format: functional; conditions: time 4 day
[15] = test system: RL95-2; experiment: Antiproliferative activity against YAP-dependent human RL95-2 cells incubated for 4 days by CyQuant assay; format: functional, cell-based; conditions: RL95-2, 96 h
[16] = test system: RL95-2; experiment: Antiproliferative activity against YAP-dependent human RL95-2 cells assessed as efficacy incubated for 4 days by CyQuant assay relative to control; format: functional; conditions: time 4 day
[17] = test system: CAL-27; experiment: Antiproliferative activity against YAP-dependent human CAL-27 cells incubated for 4 days by CyQuant assay; format: functional, cell-based; conditions: CAL-27, 96 h
[18] = test system: CAL-27; experiment: Antiproliferative activity against YAP-dependent human CAL-27 cells assessed as efficacy incubated for 4 days by CyQuant assay relative to control; format: functional; conditions: time 4 day
[19] = test system: Detroit 562; experiment: Antiproliferative activity against YAP-dependent human Detroit 562 cells incubated for 4 days by CyQuant assay; format: functional, cell-based; conditions: Detroit 562, 96 h
[20] = test system: Detroit 562; experiment: Antiproliferative activity against YAP-dependent human Detroit 562 cells assessed as efficacy incubated for 4 days by CyQuant assay relative to control; format: functional; conditions: time 4 day
[21] = test system: CAKI-1; experiment: Antiproliferative activity against YAP-dependent human CAKI-1 cells incubated for 4 days by CyQuant assay; format: functional, cell-based; conditions: CAKI-1, 96 h
[22] = test system: CAKI-1; experiment: Antiproliferative activity against YAP-dependent human CAKI-1 cells assessed as efficacy incubated for 4 days by CyQuant assay relative to control; format: functional; conditions: time 4 day
[23] = test system: CAKI-2; experiment: Antiproliferative activity against YAP-dependent human CAKI-2 cells incubated for 4 days by CyQuant assay; format: functional, cell-based; conditions: CAKI-2, 96 h
[24] = test system: NCI-H226; experiment: Antitumor activity against human NCI-H226 cells xenografted in female CEA BRG mouse model assessed as reduction in tumor volume at 37.5 to 75 mg/kg, po administered once daily for 31 days; format: functional, organism-based; conditions: dose 37.5-75 mg/kg, time 31.0 day
[25] = test system: NCI-H226; experiment: Antitumor activity against human NCI-H226 cells xenografted in female CEA BRG mouse model assessed as reduction in tumor volume administered orally once daily for 31 days; format: functional; conditions: dose 3-30 mg/kg, route po, time 31.0 day
[26] = test system: NCI-H226; experiment: Antitumor activity against human NCI-H226 cells xenografted in female CEA BRG mouse model assessed as reduction in tumor volume at 15 mg/kg, po administered twice daily for 31 days; format: functional, organism-based; conditions: time 31.0 day

Sequence of Transcriptional enhancer factor TEF-1 (Homo sapiens) (P28347 whole entry): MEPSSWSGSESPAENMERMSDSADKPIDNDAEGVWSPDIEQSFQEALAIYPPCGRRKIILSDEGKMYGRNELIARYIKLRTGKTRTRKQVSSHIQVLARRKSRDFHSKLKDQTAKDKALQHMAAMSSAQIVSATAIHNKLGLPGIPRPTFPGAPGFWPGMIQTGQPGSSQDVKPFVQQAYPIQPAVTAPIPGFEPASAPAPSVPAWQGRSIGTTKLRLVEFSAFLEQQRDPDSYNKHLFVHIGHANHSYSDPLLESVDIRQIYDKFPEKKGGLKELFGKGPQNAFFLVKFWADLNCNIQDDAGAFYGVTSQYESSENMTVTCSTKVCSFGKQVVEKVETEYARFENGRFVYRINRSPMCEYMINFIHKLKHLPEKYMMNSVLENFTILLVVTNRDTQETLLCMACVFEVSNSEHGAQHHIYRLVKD

Molecule `Cn1nc2c3cc(C(=O)N4CC[C@H](O)C4)ccc3n(-c3ccc(C(F)(F)F)cc3)c2n1` has an IC50 [1] of 51 nM, an IC50 [2] of 59 nM and an Efficacy [3] of 98%. For the same molecule, the Activity [4] was “Active”, the Activity [5] was “Active” and the IC50 [6] was 122 nM. The IC50 [7] was 122 nM, the inhibition [8] was “Active” and the IC50 [9] was 300 nM. It also gave an Efficacy [10] of 73%, an IC50 [11] of 100 nM and an Efficacy [12] of 51%. It also gave an IC50 [13] of 11000 nM, an Efficacy [14] of 122% and an IC50 [15] of 9000 nM. For the same molecule, the Efficacy [16] was 103%, the IC50 [17] was 11000 nM and the Efficacy [18] was 102%. The IC50 [19] was 16000 nM, the Efficacy [20] was 97% and the IC50 [21] was 5000 nM. The Efficacy [22] was 92%, the IC50 [23] was > 30000 nM and the Activity [24] was “Active”. The Activity [25] was “Dose-dependent-effect” and the Activity [26] was “Active”.
